Measurements from patent US4628043A, “Hypothalamic GRF agonists” (The Salk Institute for Biological Studies, priority 1985, dated 1986).
Square brackets hold non-standard residues; d marks the D form. Ends that are not written are not given here. Peptide text beside a SMILES is read from it. Nle = CCCC[C@H](N)C(=O)O

Key:
[1] = system: cells of rat pituitary glands; experiment: in vitro GH release assay in cultured rat pituitary cells, hpGRF(1-40)-OH as standard; assay type: cell-based; details: for Comparison %: GH release at equimolar concentrations relative to hpGRF(1-40)-OH standard (100%), incubation 3 to 4 hours, ir GH by radioimmunoassay
Experimental: To determine the effectiveness of the various synthetic peptides to promote the release of growth hormone, in vitro assays are carried out using synthetic hpGRF(1-40)--OH as a standard in side-by-side comparison with equimolar concentrations of the various other analogs and fragments synthesized. Cultures are used which include cells of rat pituitary glands removed some three to five days previously. Cultures which are considered optimal for the secretion of growth hormone are used for the comparative testing, in the general manner described in Vale et al. Endocrinology, 91, 562-572 (1972) and as more particularly described in Vale et al. Endocrinology, (1983), in press. Incubation with the substance to be tested is carried out for 3 to 4 hours, and aliquots of the culture medium are removed and processed to measure their contents in immunoreactive GH(ir GH) by a well-characterized radioimmunoassay.

[2] = system: freely running normal male rats; experiment: in vivo GH secretion after injection through an indwelling catheter, FLA-63 pretreated rats; design: species or system rat; details: blood GH by radioimmunoassay prior to and 5 and 20 minutes after injection; result in words
Experimental: In addition to the in vitro tests for secretion of growth hormone, in vivo experiments are also run by injecting the synthetic peptide through an indwelling catheter into freely running normal male rats. Animals are pretreated with FLA-63, a dopamine hydroxylase inhibitor that suppresses spontaneous GH secretion without affecting the response to exogenous GRF. Blood samples are taken through the same catheter immediately prior to and 5 and 20 minutes after injections; GH levels in blood are measured by radioimmunoassay. […] Dosages between about 40 nanograms and about 25 micrograms per Kg. of body weight are considered to be effective in causing secretion.

CCCC[C@H](NC(=O)[C@@H](NC(=O)[C@H](CC(=O)O)NC(=O)[C@H](CCC(N)=O)NC(=O)[C@H](CC(C)C)NC(=O)[C@H](CC(C)C)NC(=O)[C@H](CCCCN)NC(=O)[C@H](CCCNC(=N)N)NC(=O)[C@H](C)NC(=O)[C@H](CO)NC(=O)[C@H](CC(C)C)NC(=O)[C@H](CCC(N)=O)NC(=O)CNC(=O)[C@H](CC(C)C)NC(=O)[C@@H](NC(=O)[C@H](CCCCN)NC(=O)[C@H](CCCNC(=N)N)NC(=O)[C@H](Cc1ccc(O)cc1)NC(=O)[C@H](CO)NC(=O)[C@H](CC(N)=O)NC(=O)[C@@H](NC(=O)[C@H](Cc1ccccc1)NC(=O)[C@@H](NC(=O)[C@H](C)NC(=O)[C@H](CC(=O)O)NC(=O)[C@H](C)NC(=O)[C@@H](N)Cc1ccc(O)cc1)[C@@H](C)CC)[C@@H](C)O)C(C)C)[C@@H](C)CC)C(=O)N[C@@H](CC(N)=O)C(=O)N[C@@H](CCCNC(=N)N)C(N)=O [[Nle^27,Asn^28]--hGRF(1-29)-NH2, H--Tyr--Ala--Asp--Ala--Ile--Phe--Thr--Asn--Ser--Tyr--Arg--Lys--Val--Leu--Gly--Gln--Leu--Ser--Ala--Arg--Lys--Leu--Leu--Gln--Asp--Ile--Nle--Asn--Arg--NH2] (H-YADAIFTNSYRKVLGQLSARKLLQDI[Nle]NR-NH2)
Comparison % [1]: 520%

CC[C@H](C)[C@H](NC(=O)[C@H](C)NC(=O)[C@H](CC(=O)O)NC(=O)[C@H](C)NC(=O)[C@@H](N)Cc1c[nH]cn1)C(=O)N[C@@H](Cc1ccccc1)C(=O)N[C@H](C(=O)N[C@@H](CO)C(=O)N[C@@H](CO)C(=O)N[C@@H](Cc1ccc(O)cc1)C(=O)N[C@@H](CCCNC(=N)N)C(=O)N[C@@H](CCCNC(=N)N)C(=O)N[C@H](C(=O)N[C@@H](CC(C)C)C(=O)NCC(=O)N[C@@H](CCC(N)=O)C(=O)N[C@@H](CC(C)C)C(=O)N[C@@H](Cc1ccc(O)cc1)C(=O)N[C@@H](C)C(=O)N[C@@H](CCCNC(=N)N)C(=O)N[C@@H](CCCCN)C(=O)N[C@@H](CC(C)C)C(=O)N[C@@H](CC(C)C)C(=O)N[C@@H](Cc1c[nH]cn1)C(=O)N[C@@H](CCC(=O)O)C(=O)N[C@H](C(=O)N[C@@H](CCSC)C(=O)N[C@@H](CC(N)=O)C(=O)N[C@@H](CCCNC(=N)N)C(=O)N[C@@H](CCC(N)=O)C(=O)N[C@@H](CCC(N)=O)C(=O)NCC(=O)N[C@@H](CCC(=O)O)C(=O)N[C@@H](CCCNC(=N)N)C(=O)N[C@@H](CC(N)=O)C(=O)N[C@@H](CCC(N)=O)C(=O)N[C@@H](CCC(=O)O)C(=O)N[C@@H](CCC(N)=O)C(=O)N[C@@H](CCCNC(=N)N)C(=O)N[C@@H](CO)C(=O)N[C@@H](CCCNC(=N)N)C(=O)N[C@@H](Cc1ccccc1)C(=O)N[C@@H](CC(N)=O)C(=O)O)[C@@H](C)CC)[C@@H](C)CC)[C@@H](C)O [rGRF(1-43)--OH, H--His--Ala--Asp--Ala--Ile--Phe--Thr--Ser--Ser--Tyr--Arg--Arg--Ile--Leu--Gly--Gln--Leu--Tyr--Ala--Arg--Lys--Leu--Leu--His--Glu--Ile--Met--Asn--Arg--Gln--Gln--Gly--Glu--Arg--Asn--Gln--Glu--Gln--Arg--Ser--Arg--Phe--Asn--OH]
stimulation of the secretion of pituitary GH in vivo [2]: powerful stimulators of the secretion of pituitary GH | maximum effective concentration ([1]; in vitro GH secretion, cultured rat pituitary cells): 1 nM | release of GH from cultured pituitary cells ([1]; result in words): releases GH from cultured pituitary cells

npGRF(1-40)-OH: synthetic hpGRF(1-40)--OH used as a standard in the in vitro assays (YADAIFTNSYRKVLGQLSARKLLQDIMSRQQGESNQERGA-OH; UniProt P01286 32-71, looked up, fragment) [reference compound]
Comparison % [1]: 100%
